Reference: publication PMC10882719 (Frontiers in Neuroscience, 2024)
Like-named read-outs stand apart in the source and are kept apart here.

Tests used:
Assay type in all cases: cell-based
168 GPCRs [1] = target: T1, 168 GPCRs (Homo sapiens, UniProt P25929); details: NPY1R
T1 construct: host or cells: PathHunter cell lines
T1 sequence (P25929 1-384): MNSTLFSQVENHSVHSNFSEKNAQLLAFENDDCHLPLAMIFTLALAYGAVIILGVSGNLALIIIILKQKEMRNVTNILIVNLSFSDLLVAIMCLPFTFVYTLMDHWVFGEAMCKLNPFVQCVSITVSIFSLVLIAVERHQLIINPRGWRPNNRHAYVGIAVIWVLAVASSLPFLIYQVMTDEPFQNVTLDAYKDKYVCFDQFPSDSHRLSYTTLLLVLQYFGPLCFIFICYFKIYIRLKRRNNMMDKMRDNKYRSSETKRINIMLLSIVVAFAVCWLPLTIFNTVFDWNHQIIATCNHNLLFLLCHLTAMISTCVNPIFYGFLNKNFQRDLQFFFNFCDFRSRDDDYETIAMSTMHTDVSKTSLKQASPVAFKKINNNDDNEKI
Method: (§1) Studies were performed at Eurofins DiscoverX Corporation (Fremont, CA) using the GPCRmax assay according to the manufacturer’s protocols. […] Activity greater than 30% typically indicates agonist activity and inhibition greater than 50% indicates antagonist activity. This assay uses enzyme fragment complementation with […] as the functional reporter. When a GPCR is activated, […] is recruited and the reporter is detectable. GPCRmax offers a high-throughput screen of 168 GPCRs for agonist or antagonist activity. Briefly, PathHunter cell lines were propagated, seeded into 384-well microplates and incubated at 37°C. […] Microplates were read following signal generation with a PerkinElmer Envision™ instrument for chemiluminescent signal detection. Compound activity was analyzed using CBIS data analysis suite (ChemInnovation, CA) to determine raw values (RLU). For agonist mode assay, percentage activity was calculated using the following formula: % Activity =100% × (mean RLU of test sample - mean RLU of vehicle control) / (mean MAX control ligand - mean RLU of vehicle control). For antagonist mode assay, percentage inhibition was calculated using the following formula: % Inhibition =100% × (1 - (mean RLU of test sample - mean RLU of vehicle control) / (mean RLU of EC80 control - mean RLU of vehicle control)).

168 GPCRs [2] = target: T2, 168 GPCRs (Homo sapiens, UniProt Q15722); details: LTB4R
T2 construct: host or cells: PathHunter cell lines
Method: as §1

168 GPCRs [3] = target: T3, 168 GPCRs (Homo sapiens, UniProt P32239); details: CCKBR
T3 construct: host or cells: PathHunter cell lines
T3 sequence (P32239 1-447): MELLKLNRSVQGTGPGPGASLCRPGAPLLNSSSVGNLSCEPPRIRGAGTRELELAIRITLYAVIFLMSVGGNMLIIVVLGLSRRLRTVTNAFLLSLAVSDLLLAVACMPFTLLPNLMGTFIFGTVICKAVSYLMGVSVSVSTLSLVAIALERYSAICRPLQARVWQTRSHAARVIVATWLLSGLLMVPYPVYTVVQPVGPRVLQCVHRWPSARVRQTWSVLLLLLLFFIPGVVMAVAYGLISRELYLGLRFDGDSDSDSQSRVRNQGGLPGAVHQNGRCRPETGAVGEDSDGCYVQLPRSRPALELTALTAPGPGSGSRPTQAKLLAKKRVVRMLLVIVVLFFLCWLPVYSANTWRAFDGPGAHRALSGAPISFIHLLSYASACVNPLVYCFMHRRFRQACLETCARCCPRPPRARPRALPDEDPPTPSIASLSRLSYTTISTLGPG
Method: as §1

168 GPCRs [4] = target: T4, 168 GPCRs (Homo sapiens, UniProt Q9H244); details: P2RY12
T4 construct: host or cells: PathHunter cell lines
Method: as §1

168 GPCRs [5] = target: T5, 168 GPCRs (Homo sapiens, UniProt P28336); details: NMBR
T5 construct: host or cells: PathHunter cell lines
Method: as §1

168 GPCRs [6] = target: T6, 168 GPCRs (Homo sapiens, UniProt P21554)
T6 construct: host or cells: PathHunter cell lines
Method: as §1

168 GPCRs [7] = target: T7, 168 GPCRs (Homo sapiens, UniProt P32241); details: VIPR1
T7 construct: host or cells: PathHunter cell lines
T7 sequence (P32241 31-457): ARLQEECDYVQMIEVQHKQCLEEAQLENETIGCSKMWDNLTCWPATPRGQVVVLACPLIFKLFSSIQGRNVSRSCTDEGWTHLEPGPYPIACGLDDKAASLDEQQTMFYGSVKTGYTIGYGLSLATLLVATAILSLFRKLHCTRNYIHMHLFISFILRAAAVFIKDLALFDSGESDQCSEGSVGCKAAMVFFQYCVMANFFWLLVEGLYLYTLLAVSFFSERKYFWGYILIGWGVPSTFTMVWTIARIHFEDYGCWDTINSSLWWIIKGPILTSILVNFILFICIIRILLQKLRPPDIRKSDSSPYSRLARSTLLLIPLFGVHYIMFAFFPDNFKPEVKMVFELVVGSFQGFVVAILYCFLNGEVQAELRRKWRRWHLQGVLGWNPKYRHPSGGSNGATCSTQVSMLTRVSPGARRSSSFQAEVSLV
Method: as §1

168 GPCRs [8] = target: T8, 168 GPCRs (Homo sapiens, UniProt Q8TDV5)
T8 construct: host or cells: PathHunter cell lines
T8 sequence (Q8TDV5 1-335): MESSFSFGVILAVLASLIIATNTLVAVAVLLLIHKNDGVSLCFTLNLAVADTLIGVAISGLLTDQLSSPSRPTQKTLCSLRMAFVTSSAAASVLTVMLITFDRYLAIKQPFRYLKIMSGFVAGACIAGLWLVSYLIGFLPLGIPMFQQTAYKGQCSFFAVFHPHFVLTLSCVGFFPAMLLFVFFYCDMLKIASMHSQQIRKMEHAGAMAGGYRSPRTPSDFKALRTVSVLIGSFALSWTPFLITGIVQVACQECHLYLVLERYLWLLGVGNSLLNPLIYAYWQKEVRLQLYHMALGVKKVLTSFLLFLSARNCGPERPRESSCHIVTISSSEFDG
Method: as §1

T6 sequence (P21554 whole entry): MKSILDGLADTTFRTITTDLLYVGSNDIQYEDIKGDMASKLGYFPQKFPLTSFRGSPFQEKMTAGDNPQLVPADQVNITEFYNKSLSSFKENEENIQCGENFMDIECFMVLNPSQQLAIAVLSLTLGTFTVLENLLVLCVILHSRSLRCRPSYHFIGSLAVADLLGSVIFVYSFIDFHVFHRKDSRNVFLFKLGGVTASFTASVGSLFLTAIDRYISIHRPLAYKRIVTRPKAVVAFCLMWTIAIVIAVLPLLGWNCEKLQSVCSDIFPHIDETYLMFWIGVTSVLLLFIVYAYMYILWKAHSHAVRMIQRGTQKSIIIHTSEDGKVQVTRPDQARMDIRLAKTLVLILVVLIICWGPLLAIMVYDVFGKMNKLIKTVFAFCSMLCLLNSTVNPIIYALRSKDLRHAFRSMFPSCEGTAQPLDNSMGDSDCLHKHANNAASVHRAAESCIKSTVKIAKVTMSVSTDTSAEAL
T5 sequence (P28336 whole entry): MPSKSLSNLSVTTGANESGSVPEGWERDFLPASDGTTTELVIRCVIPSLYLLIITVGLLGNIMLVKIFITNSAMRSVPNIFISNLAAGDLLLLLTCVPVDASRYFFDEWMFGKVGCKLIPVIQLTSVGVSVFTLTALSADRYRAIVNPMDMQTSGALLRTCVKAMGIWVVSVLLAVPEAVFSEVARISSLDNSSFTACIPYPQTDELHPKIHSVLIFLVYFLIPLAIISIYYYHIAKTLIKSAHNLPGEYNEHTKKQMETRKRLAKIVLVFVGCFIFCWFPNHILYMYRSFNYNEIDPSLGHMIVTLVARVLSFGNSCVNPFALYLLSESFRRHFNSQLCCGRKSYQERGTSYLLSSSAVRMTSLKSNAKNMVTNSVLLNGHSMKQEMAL
T4 sequence (Q9H244 whole entry): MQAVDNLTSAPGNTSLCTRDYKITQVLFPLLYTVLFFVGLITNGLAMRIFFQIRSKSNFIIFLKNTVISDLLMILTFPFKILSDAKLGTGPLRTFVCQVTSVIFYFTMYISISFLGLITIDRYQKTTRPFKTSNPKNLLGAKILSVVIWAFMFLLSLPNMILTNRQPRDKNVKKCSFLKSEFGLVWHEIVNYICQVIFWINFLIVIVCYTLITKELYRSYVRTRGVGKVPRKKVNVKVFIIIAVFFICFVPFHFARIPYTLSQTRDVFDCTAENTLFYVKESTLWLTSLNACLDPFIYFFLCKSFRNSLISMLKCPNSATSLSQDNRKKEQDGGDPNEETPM
T2 sequence (Q15722 whole entry): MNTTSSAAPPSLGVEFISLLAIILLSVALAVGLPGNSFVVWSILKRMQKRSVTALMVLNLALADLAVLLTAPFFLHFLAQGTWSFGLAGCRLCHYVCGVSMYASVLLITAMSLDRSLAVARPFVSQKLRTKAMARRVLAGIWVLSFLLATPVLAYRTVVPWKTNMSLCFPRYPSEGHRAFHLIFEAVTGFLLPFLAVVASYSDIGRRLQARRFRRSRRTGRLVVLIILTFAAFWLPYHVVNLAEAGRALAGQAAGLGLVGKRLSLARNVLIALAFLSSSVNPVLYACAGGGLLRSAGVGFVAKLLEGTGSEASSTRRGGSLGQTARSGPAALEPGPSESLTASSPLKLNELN

Row | Compound | % Agonist Activity (168 GPCRs [1]; Conc 1 uM) | % Antagonist Activity (168 GPCRs [1]; Conc 1 uM) | % Agonist Activity (168 GPCRs [1]; Conc 10 uM) | % Antagonist Activity (168 GPCRs [1]; Conc 10 uM) | % Agonist Activity (168 GPCRs [2]; 1 uM) | % Antagonist Activity (168 GPCRs [2]; 1 uM) | % Agonist Activity (168 GPCRs [2]; 10 uM) | % Antagonist Activity (168 GPCRs [2]; 10 uM) | % Agonist Activity (168 GPCRs [3]; 1 uM) | % Antagonist Activity (168 GPCRs [3]; 1 uM) | % Agonist Activity (168 GPCRs [3]; 10 uM) | % Antagonist Activity (168 GPCRs [3]; 10 uM) | % Agonist Activity (168 GPCRs [4]; Conc 1 uM) | % Antagonist Activity (168 GPCRs [4]; Conc 1 uM) | % Agonist Activity (168 GPCRs [4]; Conc 10 uM) | % Antagonist Activity (168 GPCRs [4]; Conc 10 uM) | % Agonist Activity (168 GPCRs [5]; 1 uM) | % Antagonist Activity (168 GPCRs [5]; 1 uM) | % Agonist Activity (168 GPCRs [5]; 10 uM) | % Antagonist Activity (168 GPCRs [5]; 10 uM) | further results
1 | CNC(C)C(=O)c1ccc2c(c1)OCO2 (stereo not shown) [methylone] | -2.2% | 0.2% | -4.9% | 5.4% | -0.3% | 3.5% | -0.8% | -5.2% | -1% | -1.1% | 1.5% | -2.4% | -1.5% | -14.8% | -2.5% | -10.4% | 1.1% | 10.3% | 1.2% | 13.2% | % Agonist Activity (168 GPCRs [6]; CNR1, 1 uM): -0.4%; % Antagonist Activity (168 GPCRs [6]; CNR1, 1 uM): -3.5%; % Agonist Activity (168 GPCRs [6]; CNR1, 10 uM): -2.7%; % Antagonist Activity (168 GPCRs [6]; CNR1, 10 uM): -17.1%; % Agonist Activity (168 GPCRs [7]; Conc 1 uM): 0.3%; % Antagonist Activity (168 GPCRs [7]; Conc 1 uM): -0.7%; % Agonist Activity (168 GPCRs [7]; Conc 10 uM): 0.6%; % Antagonist Activity (168 GPCRs [7]; Conc 10 uM): 5.3%; % Agonist Activity (168 GPCRs [8]; GPR119, 1 uM): -5.8%; % Antagonist Activity (168 GPCRs [8]; GPR119, 1 uM): 17.1%; % Agonist Activity (168 GPCRs [8]; GPR119, 10 uM): -2.2%; % Antagonist Activity (168 GPCRs [8]; GPR119, 10 uM): -8.8%
2 | CNC(C)Cc1ccc2c(c1)OCO2 (stereo not shown) [MDMA, 3,4-Methylenedioxy methamphetamine, reference compound] | 1.3% | -3.9% | 0.6% | 2.2% | 0.5% | 8.9% | 0.5% | 11.3% | 2.3% | 3.2% | 1.2% | 5.2% | -1.6% | 8.6% | -0.6% | 5.9% | 0% | -2.5% | 0.1% | 4.3% | % Agonist Activity (168 GPCRs [6]; CNR1, 1 uM): -0.5%; % Antagonist Activity (168 GPCRs [6]; CNR1, 1 uM): 7.8%; % Agonist Activity (168 GPCRs [6]; CNR1, 10 uM): 0.1%; % Antagonist Activity (168 GPCRs [6]; CNR1, 10 uM): 11.2%; % Agonist Activity (168 GPCRs [7]; Conc 1 uM): -0.8%; % Antagonist Activity (168 GPCRs [7]; Conc 1 uM): 5.7%; % Agonist Activity (168 GPCRs [7]; Conc 10 uM): -0.6%; % Antagonist Activity (168 GPCRs [7]; Conc 10 uM): 5.1%; % Agonist Activity (168 GPCRs [8]; GPR119, 1 uM): 17.1%; % Antagonist Activity (168 GPCRs [8]; GPR119, 1 uM): 2.7%; % Agonist Activity (168 GPCRs [8]; GPR119, 10 uM): 10.2%; % Antagonist Activity (168 GPCRs [8]; GPR119, 10 uM): 3.8%
